What was measured:
Protease [1] = target: Protease (Human immunodeficiency virus 1, UniProt Q9YQ12, I84V); test: Inhibition of HIV1 NL4-3 protease I84V mutant expressed in Escherichia coli TAP-106 cells using EDANS/DABCYL-labelled 10-amino acid containing natural MA/CA cleavage site as substrate preincubated for 1 hr followed by substrate addition and measured for 60 mins by FRET assay
[2] = test system: Human immunodeficiency virus 1; test: Antiviral activity against wild-type HIV1 NL4-3 infected in human TZM-bl cells preincubated for 18 hrs followed by viral infection and measured after 48 hrs by luciferase reporter gene assay; type: functional, organism-based; conditions: Human immunodeficiency virus 1, NL4-3, TZM-bl
[3] = test system: Human immunodeficiency virus 1; test: Antiviral activity against multidrug-resistant HIV1 NL4-3 VSL20 infected in human TZM-bl cells preincubated for 18 hrs followed by viral infection and measured after 48 hrs by luciferase reporter gene assay; type: functional, organism-based; conditions: Human immunodeficiency virus 1, NL4-3 VSL20, TZM-bl
[4] = test system: Human immunodeficiency virus 1; test: Antiviral activity against multidrug-resistant HIV1 NL4-3 SLK19 infected in human TZM-bl cells preincubated for 18 hrs followed by viral infection and measured after 48 hrs by luciferase reporter gene assay; type: functional, organism-based; conditions: Human immunodeficiency virus 1, NL4-3 SLK19, TZM-bl
[5] = Selectivity ratio of EC50 for antiviral activity against multidrug-resistant HIV1 NL4-3 SLK19 infected in human TZM-bl cells to EC50 for antiviral activity against wild-type HIV1 NL4-3 infected in human TZM-bl cells; type: functional
[6] = test system: Human immunodeficiency virus 1; test: Antiviral activity against multidrug-resistant HIV1 NL4-3 KY24 infected in human TZM-bl cells preincubated for 18 hrs followed by viral infection and measured after 48 hrs by luciferase reporter gene assay; type: functional, organism-based; conditions: Human immunodeficiency virus 1, NL4-3 KY24, TZM-bl
Protease [7] = target: Protease (Human immunodeficiency virus 1, UniProt Q9YQ12, A71V/I50V); test: Inhibition of HIV1 NL4-3 protease I50V/A71V mutant expressed in Escherichia coli TAP-106 cells using EDANS/DABCYL-labelled 10-amino acid containing natural MA/CA cleavage site as substrate preincubated for 1 hr followed by substrate addition and measured for 60 mins by FRET assay
Protease (Human immunodeficiency virus 1, UniProt Q9YQ12, A71V/I50V), sequence (Q9YQ12 entry or part of it A71V/I50V): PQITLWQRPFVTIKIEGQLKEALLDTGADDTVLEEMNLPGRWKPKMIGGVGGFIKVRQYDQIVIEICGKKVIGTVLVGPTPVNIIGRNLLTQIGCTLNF

[8] = Selectivity ratio of EC50 for antiviral activity against multidrug-resistant HIV1 NL4-3 VSL20 infected in human TZM-bl cells to EC50 for antiviral activity against wild-type HIV1 NL4-3 infected in human TZM-bl cells; type: functional
[9] = Selectivity ratio of EC50 for antiviral activity against multidrug-resistant HIV1 NL4-3 KY24 infected in human TZM-bl cells to EC50 for antiviral activity against wild-type HIV1 NL4-3 infected in human TZM-bl cells; type: functional
[10] = test system: Human immunodeficiency virus 1; test: Potency index, ratio of darunavir EC50 to test compound EC50 for antiviral activity against multidrug-resistant HIV1 NL4-3 KY24 infected in human TZM-bl cells; type: functional

Protease (Human immunodeficiency virus 1, UniProt Q9YQ12, I84V), sequence (Q9YQ12 entry or part of it I84V): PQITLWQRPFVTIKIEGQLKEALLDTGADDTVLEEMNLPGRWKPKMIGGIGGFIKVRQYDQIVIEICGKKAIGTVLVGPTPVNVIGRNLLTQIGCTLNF

Row | Structure (SMILES) | Ki (Protease [1]) [nM] | EC50 [2] [nM] | EC50 [3] [nM] | EC50 [4] [nM] | Ratio EC50 [5] | EC50 [6] [nM] | Ki (Protease [7]) [nM] | Ratio EC50 [8] | Ratio EC50 [9] | Ratio EC50 [10]
1 | CC(C)CN(C[C@@H](O)[C@H](Cc1ccccc1)NC(=O)O[C@H]1CO[C@H]2OCC[C@H]21)S(=O)(=O)c1ccc([C@H](O)CO)cc1 | 0.283 | 189 |  |  |  |  |  |  |  | 
2 | CCC(CC)CN(C[C@@H](O)[C@H](Cc1ccccc1)NC(=O)O[C@H]1CO[C@H]2OCC[C@H]21)S(=O)(=O)c1ccc([C@H](O)CO)cc1 | 0.134 | 41 | 417 | 151 | 4 | 1150 | 0.22 | 10 | 28 | 
3 | CCC(CC)CN(C[C@@H](O)[C@H](Cc1ccccc1)NC(=O)O[C@H]1CO[C@H]2OCC[C@H]21)S(=O)(=O)c1ccc(CO)cc1 | 0.005 | 4.2 | 426 | 36 | 9 | 495 | 0.055 | 101 | 118 | 2
4 | CC(C)CN(C[C@@H](O)[C@H](Cc1ccccc1)NC(=O)O[C@H]1CO[C@H]2OCC[C@H]21)S(=O)(=O)c1ccc([C@@H](C)O)cc1 |  | 7.5 | 148 | 100 |  | 360 |  |  |  | 
5 | CC[C@H](C)CN(C[C@@H](O)[C@H](Cc1ccccc1)NC(=O)O[C@H]1CO[C@H]2OCC[C@H]21)S(=O)(=O)c1ccc([C@H](C)O)cc1 | 0.111 | 4.6 | 281 | 49 | 11 | 490 | 0.093 | 61 | 107 | 
6 | CC[C@H](C)CN(C[C@@H](O)[C@H](Cc1ccccc1)NC(=O)O[C@H]1CO[C@H]2OCC[C@H]21)S(=O)(=O)c1ccc(CO)cc1 | 0.01 | 5.7 | 310 | 52 | 9 | 1090 | 0.08 | 54 | 191 | 
7 | CCC(CC)CN(C[C@@H](O)[C@H](Cc1ccccc1)NC(=O)O[C@H]1CO[C@H]2OCC[C@H]21)S(=O)(=O)c1ccc([C@@H](O)CO)cc1 | 0.057 | 40 | 100 | 116 | 3 | 507 | 0.074 | 3 | 13 | 
8 | CC[C@H](C)CN(C[C@@H](O)[C@H](Cc1ccccc1)NC(=O)O[C@H]1CO[C@H]2OCC[C@H]21)S(=O)(=O)c1ccc([C@H](O)CO)cc1 | 0.504 | 92 |  |  |  |  |  |  |  | 
9 | CC(C)CN(C[C@@H](O)[C@H](Cc1ccccc1)NC(=O)O[C@H]1CO[C@H]2OCC[C@H]21)S(=O)(=O)c1ccc([C@H](C)O)cc1 |  | 4.7 | 117 | 31 |  | 352 |  |  |  | 
10 | CCC(CC)CN(C[C@@H](O)[C@H](Cc1ccccc1)NC(=O)O[C@H]1CO[C@H]2OCC[C@H]21)S(=O)(=O)c1ccc([C@H](C)O)cc1 |  | 4.4 | 112 | 26 |  | 196 |  |  |  | 
11 | CC[C@H](C)CN(C[C@@H](O)[C@H](Cc1ccccc1)NC(=O)O[C@H]1CO[C@H]2OCC[C@H]21)S(=O)(=O)c1ccc([C@@H](O)CO)cc1 | 0.216 | 80 |  |  |  |  |  |  |  | 
12 | CC[C@H](C)CN(C[C@@H](O)[C@H](Cc1ccccc1)NC(=O)O[C@H]1CO[C@H]2OCC[C@H]21)S(=O)(=O)c1ccc([C@@H](C)O)cc1 | 0.095 | 4.2 | 291 | 91 | 22 | 342 | 0.132 | 69 | 81 | 
13 | CC(C)CN(C[C@@H](O)[C@H](Cc1ccccc1)NC(=O)O[C@H]1CO[C@H]2OCC[C@H]21)S(=O)(=O)c1ccc([C@@H](O)CO)cc1 | 0.098 | 176 |  |  |  |  | 0.09 |  |  | 
14 | CCC(CC)CN(C[C@@H](O)[C@H](Cc1ccccc1)NC(=O)O[C@H]1CO[C@H]2OCC[C@H]21)S(=O)(=O)c1ccc([C@@H](C)O)cc1 |  | 5.1 | 420 | 32 |  | 345 |  |  |  | 
